The target in one assay is B-Raf (Homo sapiens, UniProt P15056). Kind of assay: B-Raf Accelerated MEK ATPase assay (BRAMA). The assay is classed as biochemical. To be noted: BRAMA enzyme assay; class by pIC50; read-out: B-Raf Activity. The gist of the method: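 B-Raf activity read as intrinsic MEK ATPase: catalytic activated RAF with non-phosphorylated MEK drives ADP formation, coupled through pyruvate kinase and lactate dehydrogenase to NADH oxidation, independent of ERK phosphorylation.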

The target of another assay is ErbB2 (Homo sapiens, UniProt P04626). As to the kind of experiment: ErbB2 kinase autophosphorylation assay (peptide phosphorylation, HTRF). Particulars: 10 nM ErbB2, HTRF; class by pIC50. The format is biochemical. How it is done:
(§1) A selection of compounds of the present invention were tested for inhibitory activity against EGFR and ErbB2 kinases in autophosphorylation assays.
(§2) The method measures the ability of the isolated enzyme to catalyse the transfer of the gamma-phosphate from ATP onto the tyrosine residue of a biotinylated synthetic peptide referenced “Peptide C” in Brignola, P. S., et al, (2002) J. Biol. Chem. 277(2):1576-1585. The extent of tyrosine phosphorylation was measured using an anti-phosphotyrosine antibody, and quantified by homogenous time-resolved fluorescence (HTRF).
(§3) Reactions were performed in black 384-well polystyrene flat-bottom plates in a final volume of 20 ul. Assays were performed by adding 10 μl of each of the following solutions, substrate Mix and enzyme mix: The Substrate mix contained 100 mM 3-[N-morpholino]propanesulfonic acid (MOPS) (pH 7.5), 2 mM MnCl2, 20 μM ATP, 0.01% Tween-20, 0.1 mg/mL (BSA), 0.8 uM peptide substrate, and 1 mM dithiothreitol. The enzyme mix contained 100 mM MOPS (pH7.5); 0.01% Tween-20; 0.1 mg/mL BSA, and either 0.8 nM EGFR, 10 nM ErbB2, or 1 nM ErbB4
(§4) The enzyme mix was added to the compound plates and the plates were incubated at 20° C. for 1 hour. The reactions were allowed to proceed for 90 minutes at 20° C. The reactions were then terminated by the addition of 20 μl 100 mM EDTA to each well. 40 μl/well of HTRF detection mix were added to the assay plates. The final concentrations of the detection reagents were: 100 mM HEPES (pH7.5), 0.1 mg/mL BSA, 15 nM streptavidin-labeled allophycocyanin (PerkinElmer), and 1 nM europium-labeled anti-phosphotyrosine antibody (PerkinElmer). Assay plates were left unsealed and were counted in a Wallac Multilabel Counter 1420 (PerkinElmer).
(§5) Compounds under analysis were dissolved in Me2SO to 1.0 mM and serially diluted 1 to 3 with Me2SO through twelve dilutions. 1 μl of each concentration was transferred to the corresponding well of an assay plate. This creates a final compound concentration range from 0.00027 to 47.6 μM.
(§6) The data for dose responses were plotted as % Inhibition calculated with the data reduction formula 100*(1−(U1−C2)/(C1−C2)) versus concentration of compound where U is the unknown value, C1 is the average control value obtained for 4.76% DMSO, and C2 is the average control value obtained for 0.035 M EDTA. Data were fitted with a curve described by:
(§7) where Vmax is the upper asymptote, Y2 is the Y intercept, and K is the IC50. The results for each compound were recorded as pIC50s, calculated as follows: […]
(§8) In the following table: • “+” indicates no pIC50 measurement greater than 6 against EGFR or ErbB2, • “++” indicates at least one pIC50 measurement greater than 6 against EGFR or ErbB2 but no measurement greater than pIC50 of 7; and • “+++” indicates at least one pIC50 measurement of greater than 7 against EGFR or ErbB2.
For orientation: TR-FRET usually uses a lanthanide donor and a delayed reading to cut background.

The test system of the next assay is SK-MEL-28 tumor cells. As to the kind of experiment: Cell growth inhibition assay (CellTiter-Glo), SK-MEL-28.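 Also: luminescent total ATP as a proxy for cell number, threefold serial dilutions at 0.2% DMSO, percent growth inhibition versus DMSO vehicle control wells.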 Particulars: Homo sapiens, SK-MEL-28, 72 h, read-out: Activity in SK-MEL-28 Tumor Cells.
In another assay the test system is A375P tumor cells. As to the kind of experiment: Cell growth inhibition assay (CellTiter-Glo), A375P.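 Also: total ATP luminescence used as proxy for cell number, serial threefold compound dilutions at 0.2% DMSO, growth inhibition expressed versus DMSO vehicle-treated wells.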 Particulars: Homo sapiens, 72 h, read-out: Activity in A375P Tumor Cells. Background: ATP-based viability assays read luminescence as a measure of living cells.
In the next assay the test system is Colo205 tumor cells. Kind of assay: Cell growth inhibition assay (CellTiter-Glo), Colo205.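 Also: growth measured via total ATP luminescence (CellTiter-Glo) as a proxy for cell number, inhibition expressed against DMSO-treated control wells, 3-day exposure at 0.2% final DMSO.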 Particulars: Homo sapiens, COLO 205, 72 h, read-out: Activity in Colo205 Tumor Cells.
The next assay deals with HT-29 tumor cells. As to the kind of experiment: Cell growth inhibition assay (CellTiter-Glo), HT-29.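 Also: ATP content read by luminescence as proxy for cell number, growth inhibition versus DMSO vehicle wells, 0.2% DMSO final, nine serial threefold compound dilutions.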 Particulars: Homo sapiens, HT-29, 72 h, read-out: Activity in HT-29 Tumor Cells.
The next assay has as its target EGFR (Homo sapiens, UniProt P00533). As to the kind of experiment: EGFR kinase autophosphorylation assay (peptide phosphorylation, HTRF). The assay is classed as biochemical. To be noted: 0.8 nM EGFR, class by pIC50. How it is done: as §1, §2, §3, §4, §5, §6, §7, §8
A further assay relates to SK-MEL-3 tumor cells. Kind of assay: Cell growth inhibition assay (CellTiter-Glo), SK-MEL-3.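 Also: human melanoma cells grown with compound for 3 days in 0.2% DMSO, total ATP read by luminescence as proxy for cell number, growth inhibition versus DMSO-treated wells.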 Particulars: Homo sapiens, SK-MEL3, 72 h, read-out: Activity in SK-MEL-3 Tumor Cells.

EGFR, sequence (P00533 25-1210): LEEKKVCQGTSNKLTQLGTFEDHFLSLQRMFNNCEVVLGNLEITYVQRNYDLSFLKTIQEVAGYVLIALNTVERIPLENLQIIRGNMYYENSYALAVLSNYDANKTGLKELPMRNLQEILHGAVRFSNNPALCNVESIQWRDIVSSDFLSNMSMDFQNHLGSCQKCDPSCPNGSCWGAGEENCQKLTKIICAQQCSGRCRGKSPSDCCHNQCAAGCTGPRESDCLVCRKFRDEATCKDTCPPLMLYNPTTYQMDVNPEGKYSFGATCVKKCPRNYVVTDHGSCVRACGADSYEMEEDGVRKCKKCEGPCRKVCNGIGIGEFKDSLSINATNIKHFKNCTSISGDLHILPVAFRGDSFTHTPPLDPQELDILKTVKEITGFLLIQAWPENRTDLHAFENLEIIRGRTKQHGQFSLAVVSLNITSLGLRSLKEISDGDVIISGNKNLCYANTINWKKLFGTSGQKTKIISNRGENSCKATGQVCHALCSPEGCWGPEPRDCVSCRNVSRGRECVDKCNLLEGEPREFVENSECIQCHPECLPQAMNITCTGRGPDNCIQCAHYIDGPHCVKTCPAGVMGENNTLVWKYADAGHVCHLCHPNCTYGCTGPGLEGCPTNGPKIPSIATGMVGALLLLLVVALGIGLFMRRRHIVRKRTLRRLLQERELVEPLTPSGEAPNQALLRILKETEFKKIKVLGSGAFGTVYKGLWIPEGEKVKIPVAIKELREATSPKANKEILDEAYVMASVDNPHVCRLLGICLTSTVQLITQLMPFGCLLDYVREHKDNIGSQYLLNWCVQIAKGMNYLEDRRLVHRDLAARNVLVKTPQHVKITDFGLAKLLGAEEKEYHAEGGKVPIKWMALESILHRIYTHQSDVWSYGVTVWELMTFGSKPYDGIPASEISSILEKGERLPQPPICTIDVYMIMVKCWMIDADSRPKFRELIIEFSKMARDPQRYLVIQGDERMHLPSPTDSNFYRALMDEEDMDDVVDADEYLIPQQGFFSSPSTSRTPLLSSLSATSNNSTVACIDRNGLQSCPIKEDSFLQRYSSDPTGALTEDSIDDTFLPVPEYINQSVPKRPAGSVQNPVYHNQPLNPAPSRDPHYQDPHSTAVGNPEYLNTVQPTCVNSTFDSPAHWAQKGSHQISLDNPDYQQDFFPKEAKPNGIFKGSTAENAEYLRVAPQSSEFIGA
ErbB2, sequence (P04626 23-1255): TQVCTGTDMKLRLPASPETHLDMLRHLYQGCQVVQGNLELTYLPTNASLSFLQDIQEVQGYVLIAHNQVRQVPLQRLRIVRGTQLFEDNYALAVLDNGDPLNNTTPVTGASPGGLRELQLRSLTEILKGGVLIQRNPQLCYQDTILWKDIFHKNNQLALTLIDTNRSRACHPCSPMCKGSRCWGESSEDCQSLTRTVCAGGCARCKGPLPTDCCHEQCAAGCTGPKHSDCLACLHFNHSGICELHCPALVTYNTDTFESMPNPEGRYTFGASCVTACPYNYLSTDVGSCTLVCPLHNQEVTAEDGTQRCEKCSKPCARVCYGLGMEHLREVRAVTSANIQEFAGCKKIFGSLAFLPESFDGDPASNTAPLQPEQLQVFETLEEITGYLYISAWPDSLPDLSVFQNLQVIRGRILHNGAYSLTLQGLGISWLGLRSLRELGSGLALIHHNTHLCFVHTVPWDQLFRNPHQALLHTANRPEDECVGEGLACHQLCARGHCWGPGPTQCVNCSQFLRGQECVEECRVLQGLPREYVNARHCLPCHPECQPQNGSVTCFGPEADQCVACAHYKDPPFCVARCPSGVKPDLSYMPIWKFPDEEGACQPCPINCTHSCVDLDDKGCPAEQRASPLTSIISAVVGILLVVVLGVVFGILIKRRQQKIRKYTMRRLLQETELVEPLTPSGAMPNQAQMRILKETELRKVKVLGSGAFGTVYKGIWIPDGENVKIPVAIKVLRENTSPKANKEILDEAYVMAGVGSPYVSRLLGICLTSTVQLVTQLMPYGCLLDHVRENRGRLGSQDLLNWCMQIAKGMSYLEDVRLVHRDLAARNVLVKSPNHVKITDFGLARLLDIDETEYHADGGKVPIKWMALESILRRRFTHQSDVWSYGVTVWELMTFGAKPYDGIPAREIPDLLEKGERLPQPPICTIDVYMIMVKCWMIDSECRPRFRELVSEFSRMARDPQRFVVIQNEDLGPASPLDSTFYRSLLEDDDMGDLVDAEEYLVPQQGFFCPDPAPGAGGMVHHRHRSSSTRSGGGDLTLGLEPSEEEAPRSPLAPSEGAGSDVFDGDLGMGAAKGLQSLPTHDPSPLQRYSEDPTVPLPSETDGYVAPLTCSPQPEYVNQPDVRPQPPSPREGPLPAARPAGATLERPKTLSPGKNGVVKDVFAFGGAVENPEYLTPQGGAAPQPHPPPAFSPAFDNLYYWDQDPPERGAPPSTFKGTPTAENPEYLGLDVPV
B-Raf, sequence (P15056 whole entry): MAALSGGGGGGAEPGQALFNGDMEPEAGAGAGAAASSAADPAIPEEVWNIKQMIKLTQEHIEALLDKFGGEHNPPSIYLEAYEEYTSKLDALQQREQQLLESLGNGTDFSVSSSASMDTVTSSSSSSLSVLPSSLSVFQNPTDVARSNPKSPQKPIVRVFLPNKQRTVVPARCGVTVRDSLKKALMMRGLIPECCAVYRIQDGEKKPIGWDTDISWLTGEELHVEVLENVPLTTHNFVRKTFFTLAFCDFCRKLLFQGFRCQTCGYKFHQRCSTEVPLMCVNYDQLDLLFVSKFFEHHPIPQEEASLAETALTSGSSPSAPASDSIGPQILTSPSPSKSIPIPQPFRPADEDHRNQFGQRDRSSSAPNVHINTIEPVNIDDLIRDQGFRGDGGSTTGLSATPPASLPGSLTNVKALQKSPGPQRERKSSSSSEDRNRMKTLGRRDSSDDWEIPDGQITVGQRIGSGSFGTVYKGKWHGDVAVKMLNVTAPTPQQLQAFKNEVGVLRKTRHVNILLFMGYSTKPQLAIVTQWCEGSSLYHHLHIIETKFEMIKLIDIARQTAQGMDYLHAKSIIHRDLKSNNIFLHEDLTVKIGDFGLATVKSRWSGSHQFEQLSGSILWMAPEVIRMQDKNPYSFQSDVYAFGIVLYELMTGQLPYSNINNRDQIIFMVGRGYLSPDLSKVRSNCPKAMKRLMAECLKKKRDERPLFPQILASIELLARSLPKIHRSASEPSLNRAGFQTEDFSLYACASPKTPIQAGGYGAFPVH
Procedure for HT-29 tumor cells: (§9) Cell Growth Inhibition Assays Human colon tumor cells (Colo205) were cultured in RPMI (Mediatech 50-020-PB) containing 10% FBS and 1% penicillin-streptomycin. […] Human melanoma cancer cells (A375-F11S) were cultured in RPMI (Mediatech 50-020-PB) containing 10% FBS, 1% sodium pyruvate, and 1% penicillin-streptomycin. Human colon cancer cells (HT-29) were cultured in high glucose DMEM (Mediatech 50-013-PB) containing 10% FBS and 1% penicillin-streptomycin. Human melanoma cancer cells (SK-MEL-3) were cultured in McCoy's 5A (50-025-PB) containing 15% FBS, and 1% penicillin-streptomycin. All cell lines were maintained at 37° C. in a humidified 5% CO2, 95% air incubator.
(§10) The next day, compounds were diluted as follows: For 96-well assays, 13.5 μl of compound in DMSO were diluted using nine (9) serial 1:3 dilutions of 4.5 μl in 9 μl of DMSO. Medium (270 μl/well of RPMI with 10% FBS and 1% penicillin-streptomycin) was added to the plates. Aliquots (7 μl) were added to cells in the final assay giving a final DMSO concentration of 0.2%. For 384-well assays, 15 μl of compound in DMSO were diluted using nine (9) serial 1:3 dilutions of 5 μl in 10 μl of DMSO, followed by a further dilution of 5 μl of compound with 95 μl of medium, of which 2 μl are added to cells in the final assay giving a final DMSO concentration of 0.2%. Cells were incubated at 37° C., 5% CO2 for 3 days.
(§11) Total ATP was measured (as a surrogate estimate of cell number) using CellTiter-Glo® (Promega G7571) reagent. Briefly, plates were removed from the incubator and allowed to equilibrate to room temperature for 30 minutes. CellTiter-Glo® (25 μl or 55 μl for 384-well or 96-well assays, respectively) reagent was added to each well and plates were shaken on an orbital plate shaker for 2 minutes. Plates were incubated without shaking for a further 30 minutes and read on an LJL Analyst GT reader in luminometer mode with an integration time of 0.5 seconds per well. Percent inhibition of cell growth was calculated relative to DMSO vehicle-treated control wells.
Procedure for SK-MEL-3 tumor cells: as §9, §10, §11

On to `CCNc1nc(-c2cc(OC)cc(OC)c2)c(-c2ccnc(Nc3ccc(N4CCN(C(C)=O)CC4)nc3)n2)s1` [Example 4, N-[6-(4-Acetyl-1-piperazinyl)-3-pyridinyl]-4-[4-[3,5-bis(methyloxy)phenyl]-2-(ethylamino)-1,3-thiazol-5-yl]-2-pyrimidinamine], for which the IC50 at B-Raf is less than 100 nM; against ErbB2, more than 1000 nM; in the assay on SK-MEL-28 tumor cells, less than 500 nM; in the assay on A375P tumor cells it was less than 500 nM; in the assay on Colo205 tumor cells it was less than 500 nM; with HT-29 tumor cells it was less than 500 nM. Moreover, the IC50 against EGFR was more than 1000 nM; with SK-MEL-3 tumor cells it was less than 500 nM.

As for `CCNc1nc(-c2cc(OC)cc(OC)c2)c(-c2ccnc(Nc3ccc(OC4CCN(CCS(C)(=O)=O)CC4)c(F)c3)n2)o1` [Example 82], the IC50 at B-Raf is less than 100 nM; against ErbB2, more than 1000 nM; with SK-MEL-28 tumor cells it was 500 to 5000 nM; in the assay on A375P tumor cells it was more than 5000 nM; in the assay on Colo205 tumor cells, less than 500 nM; with HT-29 tumor cells, less than 500 nM. Moreover, the IC50 against EGFR is more than 1000 nM; in the assay with SK-MEL-3 tumor cells it was less than 500 nM.

Consider `CCNc1nc(-c2cc(OC)cc(OC)c2)c(-c2ccnc(Nc3ccc(N4CCOCC4)c(F)c3)n2)s1` [Example 7, 4-[4-[3,5-Bis(methyloxy)phenyl]-2-(ethylamino)-1,3-thiazol-5-yl]-N-[3-fluoro-4-(4-morpholinyl)phenyl]-2-pyrimidinamine], for which the IC50 at B-Raf was less than 100 nM; against ErbB2 it was more than 1000 nM; with SK-MEL-28 tumor cells it was less than 500 nM; with A375P tumor cells, 500 to 5000 nM; in the assay with Colo205 tumor cells it was less than 500 nM; in the assay with HT-29 tumor cells, less than 500 nM. The IC50 on EGFR was more than 1000 nM; in the assay with SK-MEL-3 tumor cells, less than 500 nM.

`CCNc1nc(-c2cc(OC)cc(OC)c2)c(-c2ccnc(Nc3cc(F)c(N4CCN(CCS(C)(=O)=O)CC4)c(F)c3)n2)o1` [Example 91]: the IC50 on B-Raf was less than 100 nM; on ErbB2, more than 1000 nM; with SK-MEL-28 tumor cells, 500 to 5000 nM; in the assay on A375P tumor cells, 500 to 5000 nM; with Colo205 tumor cells, less than 500 nM; with HT-29 tumor cells, 500 to 5000 nM. For the same molecule, the figures for the IC50 against EGFR and in the assay on SK-MEL-3 tumor cells were more than 1000 nM and less than 500 nM, respectively.

`CCNc1nc(-c2cccc(Cl)c2)c(-c2ccnc(Nc3ccc(OCCN(C)C)c(Cl)c3)n2)s1` [Example 46, N-(3-Chloro-4-{[2-(dimethylamino)ethyl]oxy}phenyl)-4-[4-(3-chlorophenyl)-2-(ethylamino)-1,3-thiazol-5-yl]-2-pyrimidinamine]: the IC50 was less than 100 nM at B-Raf; less than 100 nM on ErbB2; less than 500 nM in the assay on SK-MEL-28 tumor cells; less than 500 nM in the assay on A375P tumor cells; less than 500 nM in the assay on Colo205 tumor cells; less than 500 nM in the assay with HT-29 tumor cells. The IC50 on EGFR was less than 100 nM; with SK-MEL-3 tumor cells it was less than 500 nM.

Consider `COc1cc(-c2nc(N3CCCC3)sc2-c2ccnc(Nc3ccc(OCCN4CCCC4)c(F)c3)n2)ccc1Cl` [Example 78, 4-[4-[4-Chloro-3-(methyloxy)phenyl]-2-(1-pyrrolidinyl)-1,3-thiazol-5-yl]-N-(3-fluoro-4-{[2-(1-pyrrolidinyl)ethyl]oxy}phenyl)-2-pyrimidinamine], for which the IC50 on B-Raf is less than 100 nM; on ErbB2, 100 to 1000 nM; with SK-MEL-28 tumor cells, 500 to 5000 nM; in the assay on Colo205 tumor cells, 500 to 5000 nM; on EGFR it was 100 to 1000 nM.

As for `CCNc1nc(-c2cc(OC)cc(OC)c2)c(-c2ccnc(Nc3ccc(N4CCN5CCOC[C@H]5C4)nc3)n2)o1` [Example 135], the IC50 at B-Raf was less than 100 nM; against ErbB2, more than 1000 nM; with SK-MEL-28 tumor cells it was more than 5000 nM; in the assay with Colo205 tumor cells it was 500 to 5000 nM; at EGFR, more than 1000 nM.

Turning to `CCNc1nc(-c2cc(C)cc(OC)c2)c(-c2ccnc(Nc3ccc(N4CCN(C(C)=O)CC4)nc3)n2)o1` [Example 70, N-[6-(4-Acetyl-1-piperazinyl)-3-pyridinyl]-4-{2-(ethylamino)-4-[3-methyl-5-(methyloxy)phenyl]-1,3-oxazol-5-yl}-2-pyrimidinamine], the IC50 was more than 1000 nM at ErbB2; less than 500 nM with A375P tumor cells; less than 500 nM with HT-29 tumor cells; more than 1000 nM at EGFR; less than 500 nM in the assay with SK-MEL-3 tumor cells.

On to `COc1cc(C)cc(-c2nc(C(C)C)sc2-c2ccnc(Nc3ccc(N4CCN5CCCCC5C4)c(F)c3)n2)c1` (stereo not drawn) [Example 113], for which the IC50 was less than 100 nM at B-Raf; more than 1000 nM against ErbB2; 500 to 5000 nM in the assay on SK-MEL-28 tumor cells; 500 to 5000 nM with Colo205 tumor cells; more than 1000 nM against EGFR.

As to `CCNc1nc(-c2ccc3c(c2)OCO3)c(-c2ccnc(Nc3ccc(OC4CCN(CCS(C)(=O)=O)CC4)c(F)c3)n2)s1` [Example 52, 4-[4-(1,3-Benzodioxol-5-yl)-2-(ethylamino)-1,3-thiazol-5-yl]-N-[3-fluoro-4-({1-[2-(methylsulfonyl)ethyl]-4-piperidinyl}oxy)phenyl]-2-pyrimidinamine], the IC50 at B-Raf is less than 100 nM; with SK-MEL-28 tumor cells, less than 500 nM; in the assay with A375P tumor cells it was less than 500 nM; in the assay on Colo205 tumor cells it was less than 500 nM; in the assay with HT-29 tumor cells it was less than 500 nM; in the assay on SK-MEL-3 tumor cells, less than 500 nM.

On to `COc1cc(OC)cc(-c2nc(NC3CC3)sc2-c2ccnc(Nc3ccc(O[C@@H]4CCN(CCF)C4)nc3)n2)c1` [Example 19, 4-[4-[3,5-Bis(methyloxy)phenyl]-2-(cyclopropylamino)-1,3-thiazol-5-yl]-N-(6-{[(3R)-1-(2-fluoroethyl)-3-pyrrolidinyl]oxy}-3-pyridinyl)-2-pyrimidinamine], for which the IC50 is less than 100 nM on B-Raf; less than 500 nM in the assay on SK-MEL-28 tumor cells; less than 500 nM in the assay on A375P tumor cells; less than 500 nM in the assay with Colo205 tumor cells; less than 500 nM in the assay with HT-29 tumor cells; less than 500 nM in the assay on SK-MEL-3 tumor cells.

`CCNc1nc(-c2cc(OC)cc(OC)c2)c(-c2ccnc(Nc3ccc(N4CCN5CCCCC5C4)c(F)c3)n2)s1` (stereo not drawn) [Example 115]: the IC50 on B-Raf was less than 100 nM; in the assay with SK-MEL-28 tumor cells, 500 to 5000 nM; in the assay on A375P tumor cells, 500 to 5000 nM; in the assay with Colo205 tumor cells, less than 500 nM; with HT-29 tumor cells, less than 500 nM; with SK-MEL-3 tumor cells it was less than 500 nM.

With `CCNc1nc(-c2cc(OC)cc(OC)c2)c(-c2ccnc(Nc3ccc(N4CCN(CCOC)CC4)c(C(=O)O)c3)n2)o1` [Example 119], the IC50 is less than 100 nM at B-Raf; 500 to 5000 nM with SK-MEL-28 tumor cells; 500 to 5000 nM in the assay with A375P tumor cells; 500 to 5000 nM in the assay on Colo205 tumor cells; 500 to 5000 nM with HT-29 tumor cells; 500 to 5000 nM with SK-MEL-3 tumor cells.

As to `CCNc1nc(-c2cc(OC)cc(OC)c2)c(-c2ccnc(Nc3cc(F)c(OC4CCN(CCS(C)(=O)=O)CC4)c(F)c3)n2)o1` [Example 90], the IC50 on B-Raf was less than 100 nM; in the assay with SK-MEL-28 tumor cells, less than 500 nM; in the assay on A375P tumor cells, 500 to 5000 nM; in the assay with Colo205 tumor cells, less than 500 nM; in the assay with HT-29 tumor cells it was less than 500 nM; in the assay with SK-MEL-3 tumor cells, less than 500 nM.
